Data on two compounds can be found in patent publication US12275715B2, “Pyridin-2(1H)-one quinolinone derivatives as mutant-isocitrate dehydrogenase inhibitors” (FORMA Therapeutics, Inc., priority 2014, dated 2025).

Assay [1] addresses IDH1-R132C recombinant protein (Homo sapiens, UniProt O75874, R132C). In words: IDH1-R132C enzymatic assay (NADPH consumption, diaphorase/resazurin readout). The class given is biochemical. The conditions noted are these: read-out: Enzyme IDH1 R132C Range. How it is done: (§1) Assays were performed in a 384-well black plate. […] After the plate was centrifuged briefly, an aliquot of 10 μL of 2 mM α-ketoglutarate and 20 μM NADPH solution prepared in assay buffer was then added to each well and the reaction was maintained at 25° C. for 45 minutes. An aliquot of 10 μL of diaphorase solution (0.15 U/mL diaphorase and 30 μM Resazurin in assay buffer) was added to each well. […] The IC50 of a given compound was calculated by fitting the dose response curve of inhibition of NADPH consumption at a given concentration with the four parameter logistic equation.
(Alamar Blue is a resazurin reagent that responds to reducing activity.)

Assay [2] relates to HCT116 isogenic IDH1-R132H mutant cells. In words: Cellular 2-HG assay using HCT116 mutant IDH1 cells (R132H). The class given is cell-based. The conditions noted are these: Homo sapiens, HCT-116; cellular 2-HG inhibition, 24 hours, RapidFire mass spectrometry; read-out: HCT116 IDH1 R132H Range. How it is done: (§2) HCT116 isogenic IDH1-R132H and IDH1-R132C mutant cells were cultured in growth media (McCoy's 5A, 10% fetal bovine serum, 1× antibiotic-antimycotic solution and 0.3 mg/mL G418) in 5% CO2 in an incubator at 37° C. To prepare the assay, cells were trypsinized and resuspended in assay media (McCoy's 5A with no L-glutamine, 10% fetal bovine serum, 1× antibiotic-antimycotic solution and 0.3 mg/mL G418). An aliquot of 10,000 cells/100 μL was transferred to each well of a clear 96-well tissue culture plate. The cells were incubated in 5% CO2 at 37° C. in an incubator overnight to allow for proper cell attachment. An aliquot of 50 μL of compound containing assay media were then added to each well and the assay plate was kept in 5% CO2 at 37° C. in an incubator for 24 hours. The media was then removed from each well and 150 μL of a methanol/water mixture (80/20 v/v) was added to each well. The plates were kept at −80° C. freezer overnight to allow for complete cell lysis. An aliquot of 125 μL of extracted supernatant was analyzed by RapidFire high-throughout-mass spectrometry (Agilent) to determine the cellular 2-HG level. The IC50 of a given compound was calculated by fitting the dose response curve of cellular 2-HG inhibition at a given concentration with the four parameter logistic equation

Assay [3] has as its system HCT116 isogenic IDH1-R132C mutant cells. Briefly: Cellular 2-HG assay using HCT116 mutant IDH1 cells (R132C). The class given is cell-based. The following applies: Homo sapiens, HCT-116; cellular 2-HG inhibition, 24 hours, RapidFire mass spectrometry; read-out: HCT116 IDH1 R132C Range. The procedure: as §2
Assay [4] addresses IDH1-R132H recombinant protein (Homo sapiens, UniProt O75874, R132H). In words: IDH1-R132H enzymatic assay (NADPH consumption, diaphorase/resazurin readout). Type of assay: biochemical. The conditions noted are these: read-out: Enzyme IDH1 R132H Range. The procedure: as §1

Sequence of IDH1-R132H recombinant protein (O75874 whole entry R132H): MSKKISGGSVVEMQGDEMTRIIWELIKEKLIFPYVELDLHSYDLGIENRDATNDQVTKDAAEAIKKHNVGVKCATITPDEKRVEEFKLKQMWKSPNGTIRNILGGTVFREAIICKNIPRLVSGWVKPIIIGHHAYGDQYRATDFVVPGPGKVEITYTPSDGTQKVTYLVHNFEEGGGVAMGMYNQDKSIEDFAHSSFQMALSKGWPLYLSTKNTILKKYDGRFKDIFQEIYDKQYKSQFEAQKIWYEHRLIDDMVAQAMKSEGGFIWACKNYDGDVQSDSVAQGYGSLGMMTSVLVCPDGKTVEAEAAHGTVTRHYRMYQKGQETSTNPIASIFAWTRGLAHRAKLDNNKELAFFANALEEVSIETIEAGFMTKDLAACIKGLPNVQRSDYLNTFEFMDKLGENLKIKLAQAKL
Sequence of IDH1-R132C recombinant protein (O75874 whole entry R132C): as the sequence (O75874 whole entry R132H) above, with H132C counted along it

Take `C[C@@H](Nc1ccc(C#N)n(C)c1=O)c1nc2cc(Cl)ccc2[nH]c1=O` [Compound I-32, 5-{[(1R)-1-(7-chloro-3-oxo-3,4-dihydroquinoxalin-2-yl)ethyl]amino}-1-methyl-6-oxo-1,6-dihydropyridine-2-carbonitrile]: the IC50 in assay [1] is 1000 to 10000 nM; in assay [2] it was more than 1000 nM; in assay [3], more than 1000 nM; in assay [4], 100 to 1000 nM.
Consider `C[C@H](Nc1ccc(C#N)n(C)c1=O)c1nc2cc(Cl)ccc2[nH]c1=O` [Compound I-33, 5-{[(1S)-1-(7-chloro-3-oxo-3,4-dihydroquinoxalin-2-yl)ethyl]amino}-1-methyl-6-oxo-1,6-dihydropyridine-2-carbonitrile], for which the IC50 in assay [1] was 1000 to 10000 nM; in assay [2] it was 100 to 1000 nM; in assay [3], more than 1000 nM; in assay [4], 100 to 1000 nM.
